Results on ten molecules are retold here after patent US7700765B2, “DNA minor groove binding compounds” (University of Strathclyde, priority 2001, dated 2010).

For orientation: MIC means the lowest concentration that inhibits growth of the organism. A lower MIC goes with inhibition by little substance.

SMILES strings stand for the structures. In brackets after ≈: the same amount, converted by molar mass. Some results are limits rather than exact numbers.

One assay concerns Ent. cloacae. The assay can be described thus: Minimum inhibitory concentration (MIC) against microorganisms. The class given is cell-based. The settings on record: Enterobacter cloacae; Organism: Ent. cloacae. The source says: (§1) Minimum inhibitory concentrations (MICs) against microorganisms (e.g. S. Aureus, E. coli, S. faecalis, P. vulgaris, MRSA, Aspergillus niger, Candida albicans, Klebs. aerogenes, Ent. cloacae, Mycobacterium fortuitum or Aspergillus nidulans) for compounds of the invention may be measured using procedures such as those described in A. J. Drummond and R. D. Waigh “The development of microbiological methods for phytochemical screening” Recent Res. Devel. Phytochem. 4, 143-152 (2000).

Another assay has as its system Mycobacterium fortuitum. The description is as above. The class given is cell-based. As to conditions: Mycolicibacterium fortuitum; Organism: Mycobacterium fortuitum.
From the text: as §1

The test system of another assay is E. coli. The assay is described as above. The settings on record: Escherichia coli; Organism: E. coli. The class given is cell-based.
From the text: as §1

The subject of another assay is S. faecalis. The assay is described as above. The class given is cell-based. As to conditions: Enterococcus faecalis; Organism: S. faecalis.
From the text: as §1

The next assay relates to S. aureus. Described as above. As to conditions: Staphylococcus aureus; Organism: S. aureus. It counts as cell-based.
From the text: as §1

The test system of the next assay is Aspergillus nidulans. The assay is described as above. It counts as cell-based. As to conditions: Organism: Aspergillus nidulans.
From the text: as §1

For the next assay, the system named is P. vulgaris. Described as above. The class given is cell-based. As to conditions: Proteus vulgaris; Organism: P. vulgaris.
From the text: as §1

In another assay the test system is Klebs. aerogenes. The description is as above. It counts as cell-based. As to conditions: Klebsiella aerogenes; Organism: Klebs. aerogenes.
From the text: as §1

The next assay concerns Aspergillus niger. The description is as above. The class given is cell-based. The settings on record: Organism: Aspergillus niger.
From the text: as §1

The next assay concerns MRSA. The assay is described as above. It counts as cell-based. As to conditions: Staphylococcus aureus; Organism: MRSA.
From the text: as §1

The subject of the next assay is Candida albicans. The description is as above. The class given is cell-based. The settings on record: Organism: Candida albicans.
From the text: as §1

The next assay addresses DNA. As to conditions: binding to DNA; read-out: dissociation constants; cited from earlier work.
The test system of assay [1] is double-stranded DNA decamer CGACTAGTCG (SEQ ID NO:3). The assay is described as follows: Capillary electrophoresis ligand-DNA binding study. As to conditions: drug to DNA ratio up to 4:1. The source says: (§2) Typically, ligand binding results in a change in migration time of the DNA and sometimes a change in peak shape.
(§3) The following are shown in FIGS. 1-6: • (a) the experimental conditions, including the DNA sequence(s); • (b) the result of sequential addition of ligand; and • (c) the structure of the ligand being investigated. Key to FIGS. 1 to 6: • r0=electropherogram in the absence of drug • rX=(where X is 0.5, 1, 2, 3 or 4) electropherogram in the presence of drug, where the drug:DNA ratio (in terms of concentration) is X:1
This ratio corresponds to the binding ratio.

Assay [2] relates to double-stranded DNA oligonucleotide AAATTATATTAT (SEQ ID NO:1). The assay can be described thus: Capillary electrophoresis ligand-DNA binding study. As to conditions: AAATTATATTAT versus GGGCCGCGCCGC
From the text: Capillary electrophoresis was used to study of ligand-DNA binding (see: (i) Hamdan, I. I.; Skellern, G. G.; and Waigh, R. D. “Separation of pd(GC)12 from pd(AT)12 by free solution capillary electrophoresis”, J. Cromatogr. A. 806, 165-168 (1998); (ii) Hamdan, I. I.; Skellern, G. G.; and Waigh, R. D. “Use of capillary electrophoresis in the study of ligand-DNA interactions”, Nucleic Acids Research 26, 3053-3058 (1998); (iii) Hamdan, I. I.; Skellern, G. G.; and Waigh, R. D. “Ligand binding to oligonucleotides” Methods in Molecular Biology, Vol. 163, “Capillary Electrophoresis of Nucleic acids”, Vol 2, pages 379-391, K. R. Mitchelson and J. Cheng Eds., Humana Press, New Jersey, (2000)).
as §2, §3
This ratio corresponds to the binding ratio. […]

Assay [3] relates to NFκB protein-DNA complexes. The assay can be described thus: NFκB DNA-binding assay (gel shift) with macrophage nuclear extracts. It counts as biochemical, Murine. The settings on record: 1 μL of a 1 mM solution, final volume 10 μL; nuclear protein from macrophages exposed to LPS. As for the experimental part: Murine macrophages (obtained and cultured as described in Cell. Signal. 11(7), 491 (1999), hereinafter referred to as “Reference 1”, the disclosures of which document are hereby incorporated by reference) were exposed to vehicle (see Reference 1) or 1 μg/mL lipopolysaccharide (LPS; the active component of gram-negative endotoxin and a strong activator of the Nuclear Factor kappa B (NFκB) pathway; the particular LPS being obtained from Salmonella minnesota) for 1 hour and nuclear extracts prepared by standard procedures (see Brit. J. Pharmacol. 134, 393 (2001), hereinafter referred to as “Reference 2”, the disclosures of which document are hereby incorporated by reference).
Aliquots of compounds (1 μL of a 1 mM solution) were incubated with 1 μL (0.035 pmol) of a ^32P-labelled 20 bp double-stranded DNA oligonucleotide (representing the consensus binding sequence for NFκB proteins (see Reference 2 and Brit. J. Pharmacol. 134, 1629-1638 (2001), the disclosures of which latter document are hereby incorporated by reference)) for 30 min at room temperature. […] The formation of NFκB protein-DNA complexes and potential inhibition of complex formation in the presence of the above compounds was detected by autoradiography. […]

As for `CC(C)c1sc(NC(=O)c2cc(NC(=O)c3cc(NC=O)cn3C)cn2C)nc1C(=O)NCCCN(C)C` [Example 3, N-[3-(Dimethylamino)propyl]-2-({[4-({[4-(formylamino)-1-methyl-1H-pyrrol-2-yl]carbonyl}amino)-1-methyl-1H-pyrrol-2-yl]carbonyl}amino)-5-isopropyl-1,3-thiazole-4-carboxamide], the MIC against Ent. cloacae is 76.2 µM (≈ 41.4 µg/mL); in the assay with Mycobacterium fortuitum, 19 µM (≈ 10.3 µg/mL); against E. coli, over 152 µM; against S. faecalis, 9.5 µM (≈ 5.16 µg/mL); in the assay on S. aureus, 4.7 µM (≈ 2.55 µg/mL); in the assay on Aspergillus nidulans, 38.1 µM (≈ 20.7 µg/mL). In addition, the MIC against P. vulgaris was 152 µM (≈ 82.6 µg/mL); in the assay with Klebs. aerogenes it was 76.2 µM (≈ 41.4 µg/mL); in the assay on Aspergillus niger it was 76.1 µM (≈ 41.3 µg/mL); with MRSA, 38.1 µM (≈ 20.7 µg/mL); in the assay on Candida albicans, 76.1 µM (≈ 41.3 µg/mL).

Consider `[H]/N=C(/N)N[C@H]1[C@H](O)[C@@H](O)[C@H](O[C@@H]2O[C@@H](C)[C@](O)(C=O)[C@H]2O[C@@H]2O[C@@H](CO)[C@H](O)[C@@H](O)[C@@H]2NC)[C@@H](N/C(N)=N\[H])[C@@H]1O` [Streptomycin, reference compound], for which, in the assay with Mycobacterium fortuitum, the minimum inhibitory concentration (MIC) was 21.5 µM (≈ 12.5 µg/mL).

Take `OC(Cn1cncn1)(Cn1cncn1)c1ccc(F)cc1F` [Fluconazole, reference compound]: the MIC is 40.8 µM (≈ 12.5 µg/mL) against Aspergillus nidulans, over 327 µM in the assay with Aspergillus niger and 81.6 µM (≈ 25 µg/mL) in the assay on Candida albicans.

`CC(C)c1sc(NC(=O)c2cc(NC(=O)c3ccc4c(c3)CCc3cc(C(=O)Nc5cc(C(=O)Nc6nc(C(=O)NCCCN(C)C)c(C(C)C)s6)n(C)c5)ccc3-4)cn2C)nc1C(=O)NCCCN(C)C` [Example 28, N^2,N^7-Bis[5-({[4-({[3-(dimethylamino)propyl]amino}carbonyl)-5-isopropyl-1,3-thiazol-2-yl]amino}carbonyl)-1-methyl-1H-pyrrol-3-yl]-9,10-dihydro-2,7-phenanthrenedicarboxamide]: the MIC in the assay with Ent. cloacae is over 80.3 µM; against Mycobacterium fortuitum it was 40.1 µM (≈ 40.8 µg/mL); in the assay with E. coli, over 80.3 µM; in the assay on S. faecalis it was 10 µM (≈ 10.2 µg/mL); against S. aureus, 80 µM (≈ 81.4 µg/mL); against Aspergillus nidulans it was 20.1 µM (≈ 20.4 µg/mL). Also, the MIC against P. vulgaris is over 80.3 µM; against Klebs. aerogenes, over 80.3 µM; in the assay on Aspergillus niger, over 80.3 µM; in the assay with MRSA, 10 µM (≈ 10.2 µg/mL); with Candida albicans, over 80.3 µM.

Regarding `CC(C)c1sc(NC(=O)c2cc(NC=O)cn2C)nc1C(=O)Nc1cc(C(=O)NCCCN(C)C)n(C)c1` [Example 7, N-[5-({[3-(Dimethylamino)propyl]amino}carbonyl)-1-methyl-1H-pyrrol-3-yl]-2-({[4-(formylamino)-1-methyl-1H-pyrrol-2-yl]carbonyl}amino)-5-isopropyl-1,3-thiazole-4-carboxamide], the MIC in the assay on Ent. cloacae was 9.5 µM (≈ 5.16 µg/mL); in the assay on Mycobacterium fortuitum, 19 µM (≈ 10.3 µg/mL); with E. coli it was over 152 µM; in the assay on S. faecalis, 9.5 µM (≈ 5.16 µg/mL); with S. aureus, 4.8 µM (≈ 2.6 µg/mL); against Aspergillus nidulans it was 9.5 µM (≈ 5.16 µg/mL). Further, the MIC stood at 152 µM (≈ 82.7 µg/mL) against P. vulgaris; 38.1 µM (≈ 20.7 µg/mL) with Klebs. aerogenes; 38.1 µM (≈ 20.7 µg/mL) in the assay on Aspergillus niger; 19.1 µM (≈ 10.4 µg/mL) in the assay with MRSA; 38.1 µM (≈ 20.7 µg/mL) with Candida albicans.

As to `CC1(C)S[C@@H]2[C@H](NC(=O)[C@H](N)c3ccc(O)cc3)C(=O)N2[C@H]1C(=O)O` [Amoxicillin, reference compound], the MIC is 4 µM (≈ 1.46 µg/mL) against Ent. cloacae; 2 µM (≈ 0.731 µg/mL) in the assay on E. coli; 0.49 µM (≈ 0.179 µg/mL) with S. faecalis; 0.49 µM (≈ 0.179 µg/mL) in the assay on S. aureus; 8.1 µM (≈ 2.96 µg/mL) with P. vulgaris; 32.3 µM (≈ 11.8 µg/mL) against Klebs. aerogenes. This molecule also came in with an MIC in the assay with MRSA of 16.1 µM (≈ 5.88 µg/mL).

As to `Cn1cc(NC(=O)c2cc(NC(=O)c3cc(NC=O)cn3C)cn2C)cc1C(=O)NCCC(=N)N` [distamycin, reference compound], the Kd at DNA was about 10 µM. Also, the “affinity for the sequence” value in [1] is “no affinity”.

Regarding `Cn1cc(NC(=O)c2cc(NC(=O)CN=C(N)N)cn2C)cc1C(=O)NCCC(=N)N` [netropsin], at DNA, the Kd was about 10 µM. Besides, in assay [2], the AT selectivity entry was “AT selective”.

In the case of `CC(C)CCn1cc(NC(=O)c2ccc3[nH]c(C(=O)Nc4cc(C(=O)Nc5cc(C(=O)NCCCN6CCOCC6)n(C)c5)n(CCC(C)C)c4)cc3c2)cc1C(=O)Nc1cc(C(=O)NCCCN2CCOCC2)n(C)c1` [Example 17, N^2,N^5-Bis[1-isopentyl-5-({[1-methyl-5-({[3-(4-morpholinyl)propyl]amino}-carbonyl)-1H-pyrrol-3-yl]amino}carbonyl)-1H-pyrrol-3-yl]-1H-indole-2,5-dicarboxamide], the MIC in the assay with Ent. cloacae is over 77.7 µM; against Mycobacterium fortuitum, over 77.7 µM; in the assay on E. coli, over 77.7 µM; against S. faecalis, 77.7 µM (≈ 82.2 µg/mL); against S. aureus it was 19.4 µM (≈ 20.5 µg/mL); in the assay on Aspergillus nidulans, 77.7 µM (≈ 82.2 µg/mL). Moreover, the MIC is 77.7 µM (≈ 82.2 µg/mL) against P. vulgaris; 38.9 µM (≈ 41.2 µg/mL) with Klebs. aerogenes; over 77.7 µM against Aspergillus niger; over 77.7 µM with MRSA; over 77.7 µM in the assay on Candida albicans.

Turning to `CC(C)n1cc(NC(=O)c2cc(NC=O)cn2C)cc1C(=O)Nc1cc(C(=O)NCCCN(C)C)n(C)c1` [Example 2, N-[5-({[5-({[3-(Dimethylamino)propyl]amino}carbonyl)-1-methyl-1H-pyrrol-3-yl]amino}carbonyl)-1-isopropyl-1H-pyrrol-3-yl]-4-(formylamino)-1-methyl-1H-pyrrole-2-carboxamide], the “effect on LPS-stimulated NFκB-DNA binding activity” value in [3] is “little effect”.
